Active and inactive are the calls of the source. No cut-off for these calls is given here.
What was measured:
[1] = molecular target: T1, 17-beta-hydroxysteroid dehydrogenase type 1 (Homo sapiens) (UniProt P14061); test: Inhibition of 17beta-HSD1 in human T47D cells expressing estrogen receptor assessed as conversion of [14C]-E1 to [14C]-E2 at 5 uM after 24 hrs; assay type: cell-based
T1 sequence (whole entry): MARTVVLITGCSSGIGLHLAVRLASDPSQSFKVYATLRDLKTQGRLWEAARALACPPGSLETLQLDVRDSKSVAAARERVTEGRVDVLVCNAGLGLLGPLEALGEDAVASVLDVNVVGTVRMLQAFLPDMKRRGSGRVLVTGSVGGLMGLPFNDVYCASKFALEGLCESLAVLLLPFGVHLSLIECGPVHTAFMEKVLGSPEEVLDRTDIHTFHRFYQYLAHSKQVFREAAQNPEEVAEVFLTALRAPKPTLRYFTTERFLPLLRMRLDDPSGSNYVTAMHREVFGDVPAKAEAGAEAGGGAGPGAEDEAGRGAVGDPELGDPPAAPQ

[2] = molecular target: T1, 17-beta-hydroxysteroid dehydrogenase type 1 (Homo sapiens); test: Inhibition of 17beta-HSD1 in human T47D cells expressing estrogen receptor assessed as conversion of [14C]-E1 to [14C]-E2 at 0.3 uM after 24 hrs; assay type: cell-based
[3] = molecular target: T2, 17-beta-hydroxysteroid dehydrogenase type 1 (Homo sapiens, UniProt P14061); test: Inhibition of 17beta-HSD1 in human T47D cells expressing estrogen receptor assessed as conversion of [14C]-E1 to [14C]-E2 after 24 hrs; assay type: cell-based
T2 sequence (P14061 whole entry): T1 sequence (whole entry)

T47D [4] = test: Estrogenic activity in human T47D cells expressing estrogen receptor assessed as stimulation cell growth at 1 uM after 7 days relative to control
T47D [5] = test: Estrogenic activity in human T47D cells expressing estrogen receptor assessed as stimulation cell growth at 0.1 uM after 7 days relative to control

Row | inhibition [1] [%] | inhibition [2] [%] | IC50 [3] [µM] | SMILES | Activity (T47D [4]) | Activity (T47D [5])
1 | 75 | 20 | 1 | C[C@]12CC[C@@H]3c4ccc(O)cc4CC[C@H]3[C@@H]1C[C@@H]1[C@@H](Cc3cccc(C(N)=O)c3)C(=O)O[C@@H]12 | inactive | inactive
2 | 90 | 85 |  | C[C@]12CC[C@@H]3c4ccc(O)cc4CC[C@H]3[C@@H]1C[C@H](Cc1cccc(C(N)=O)c1)[C@@H]2O | 83% | 48%

Source: ChEMBL document CHEMBL1828522, “Synthesis and preliminary evaluation of a modified estradiol-core bearing a fused γ-lactone as non-estrogenic inhibitor of 17β-hydroxysteroid dehydrogenase type 1” (Bioorg Med Chem Lett, 2011)
